Measurements published in patent publication US20210007360A1, “SOLUTIONS COMPRISING OZONIZED OIL” (priority 2018, published 2021).

Legend:
[1] = cited from earlier work
[2] = 20° C.; cited from earlier work
knees of patients = assay: Intra-articular ozone and PRP treatment of knees, VAS scores; format: in vivo, human; conditions: 8 sessions of ozone and 2 sessions of PRP, 187 knees of 100 patients, baseline 8.5
Description: Ozone gas injection may cause short-term burning and itching. However, this effect is rarely seen in intramuscular injections. For this reason, ozonide solutions comprising local anesthetic should be preferred especially if superficial injection will be performed. […] It is known that it prevents loss of cartilage by increasing oxygenation of the joint cartilage and reduces pain due to the analgesic effect with its anti-inflammatory effect. There are many publications in the literature about this issue. Similarly, in our own research, it was observed that VAS scores decreased from 8.5 to 4 on average as a result of the application of 8 sessions of ozone and 2 sessions of PRP treatment on 187 knees of 100 patients. In these applications, 20 micrograms of ozone are given as 20 ml (cc). That is, 400 micrograms of ozone have been applied. […] It can be applied at most twice a week. In addition, it can be combined with local anesthetic and anti-inflammatory agents. Vitamin E, which becomes popular in experimental studies in recent years, can be applied together with oil solutions and anti-inflammatory drugs. Hyaluronic acid is known to increase cartilage matrix in the intraarticular injection. It is known that better results are obtained with the ozone treatment and hyaluronic acid combinations. […]

[3] = system: patients diagnosed with a cervical disc hernia; assay: Regional injections of ozone and PRP in cervical disc hernia, VAS pain score; format: in vivo, human; conditions: 8 sessions of ozone, 2 sessions of PRP, 66 patients, 9.3 at the beginning
Procedure: Cervical disc and spinal disc hernias are one of the common health issues. In the studies we conduct on 66 patients diagnosed with a cervical disc hernia, the pain score is evaluated according to the VAS in 1 month, 4 months and 1 year after the regional injections of 8 sessions of ozone, 2 sessions of PRP. The pain score was 9.3 at the beginning, 6.9 in the first month, 4.8 in the 4th month and 3.6 at the end of the first year. It is also found in the literature that the regional injections of ozone are so effective. However, to perform these applications, there is a need for a clinic or a hospital where ozone treatment is offered. The dosages of solutions of ozonized oil or ozonides in water in regional applications are also applicable here. Depending on the size of the region, the ozonized oil or ozonide solution of 2-4 mg (2000-4000 ppm), which is made with ozonides comprising 10% ozone may be injected into paravertebral muscles and subcutaneous tissue to be able to benefit from anti-inflammatory and analgesic effects. However, with tissue oxygenation, dissolution of muscle spasm, and increased blood supply to the hernia, a long-acting treatment and shrinking of the hernia is provided.

Structure (SMILES): CCCCN1CCCCC1C(=O)Nc1c(C)cccc1C (stereo not shown) [bupivacaine]
- duration of local effect ([1]; injection in oil): 72 h

Structure (SMILES): O=[O+][O-] [ozone]
- half life [2]: 40 min
- VAS score after treatment, average (knees of patients): 4
- VAS pain score at the end of the first year [3]: 3.6
- VAS pain score in the 4th month [3]: 4.8
- VAS pain score in the first month [3]: 6.9

Structure (SMILES): CCN(CC)CC(=O)Nc1c(C)cccc1C [Lidocaine]
- duration of effect in the injection zone ([1]; normal injection): up to 2 hours
